For experiment [1], the target named is T1, Bile acid receptor (Homo sapiens, UniProt Q96RI1).
T1 sequence (Q96RI1 whole entry): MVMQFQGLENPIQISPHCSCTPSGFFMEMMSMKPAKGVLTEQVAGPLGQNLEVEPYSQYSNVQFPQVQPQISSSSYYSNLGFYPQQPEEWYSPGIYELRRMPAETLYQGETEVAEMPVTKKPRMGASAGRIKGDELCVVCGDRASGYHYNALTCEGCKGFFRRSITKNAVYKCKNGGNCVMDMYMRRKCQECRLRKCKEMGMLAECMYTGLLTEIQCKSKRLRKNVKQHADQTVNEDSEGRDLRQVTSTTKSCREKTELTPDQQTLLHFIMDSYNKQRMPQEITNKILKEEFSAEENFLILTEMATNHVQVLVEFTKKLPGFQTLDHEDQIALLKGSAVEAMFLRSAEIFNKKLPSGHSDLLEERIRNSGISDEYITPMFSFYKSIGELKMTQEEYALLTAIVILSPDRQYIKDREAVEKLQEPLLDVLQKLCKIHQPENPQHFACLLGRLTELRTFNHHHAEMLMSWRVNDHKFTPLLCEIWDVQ
The experiment in a line: Agonist activity at FXR-LBD (unknown origin) incubated for 3 hrs in presence of fluorescein-coactivator peptide by TR-FRET analysis. (In general: In TR-FRET formats the signal depends on donor and acceptor labels being close together.)

The target in experiment [2] is T1, Bile acid receptor. The experiment is described as follows: Agonist activity at FXR (unknown origin) transfected in human HepG2 cells incubated for 24 hrs by luciferase assay. The format is cell-based.
For experiment [3], the target named is T2, 17-beta-hydroxysteroid dehydrogenase 13 (Homo sapiens, UniProt Q7Z5P4).
T2 sequence (Q7Z5P4 whole entry): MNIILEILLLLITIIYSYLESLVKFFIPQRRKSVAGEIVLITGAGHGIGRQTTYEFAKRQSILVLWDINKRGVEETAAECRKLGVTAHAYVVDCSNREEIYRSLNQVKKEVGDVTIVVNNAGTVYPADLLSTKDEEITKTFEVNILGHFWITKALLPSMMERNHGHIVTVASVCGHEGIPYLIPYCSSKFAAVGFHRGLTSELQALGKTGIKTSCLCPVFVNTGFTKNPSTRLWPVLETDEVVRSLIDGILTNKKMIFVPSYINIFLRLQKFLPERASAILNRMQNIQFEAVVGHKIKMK
Description: Inhibition of HSD17B13 (unknown origin) using beta-estradiol and FAC-NAD+ as substrate incubated for 2 hrs by NAD(P)H-Glo detection reagent based luminescence assay

Experiment [4] addresses T1, Bile acid receptor. The experiment in a line: Agonist activity at FXR (unknown origin).
The subject of experiment [5] is Mus musculus. The experiment is described as follows: Anti-MASH activity in western diet and CCl4 co-induced male C57BL/6 mouse model assessed as NAFLD activity score at 20 mg/kg, po administered with high fat diet and sugar water for 12 weeks with subsequent CCl4 administration three times a week and measured after 4 weeks of compound administration via gavage starting from 9th week (Rvb > 6). The format is functional.

Broadly, the EC50 is the concentration at which the effect is half-maximal. The term IC50 denotes the concentration at which inhibition is half-maximal. A higher IC50 goes with lower potency.

Turning to `CC(C)NC(=O)c1ccc(-c2ccc(OCc3c(-c4c(Cl)cccc4Cl)noc3C3CC3)cc2)cc1`, the EC50 in experiment [1] was 974 nM.

On to `Cc1cc(OCc2c(-c3c(Cl)cccc3Cl)noc2C2CC2)ccc1-c1ccc(C(=O)O)cc1`, for which the values for the EC50 in experiment [1] and in experiment [2] were 134 nM and 301 nM, respectively.

As to `CN(C)C(=O)c1ccc(-c2ccc(OCc3c(-c4c(Cl)cccc4Cl)noc3C3CC3)cc2)cc1`, the EC50 in experiment [1] amounted to 482 nM.

Turning to `O=C(O)c1cccc2nc(-c3ccc(OCc4c(-c5c(Cl)cccc5Cl)noc4C4CC4)cc3)cn12`, the EC50 in experiment [1] was determined as 121 nM; in experiment [2], 186 nM. Also, the 50% inhibitory concentration (IC50) in experiment [3] is 850 nM.

`O=C(O)c1ccc(-c2ccc(OCc3c(-c4c(Cl)cccc4Cl)noc3C3CC3)cc2)nc1`: the EC50 is 129 nM in experiment [1] and 329 nM in experiment [2].

With `O=C(O)c1ccc(-c2ccc(OCc3c(-c4c(Cl)cccc4Cl)noc3C3CC3)c(F)c2)cc1`, the EC50 in experiment [1] is 143 nM; in experiment [2], 475 nM.

With `CN(C)C(=O)c1cccc(-c2ccc(OCc3c(-c4c(Cl)cccc4Cl)noc3C3CC3)cc2)c1`, the EC50 in experiment [1] came out at 209 nM; in experiment [2], 493 nM.

Regarding `CC(C)c1onc(-c2ccccc2C(F)(F)F)c1COc1ccc(-c2ccc(C(=O)O)cc2)cc1`, the EC50 is 232 nM in experiment [1] and 525 nM in experiment [2].

`O=C(O)c1ccc(-c2ccc(OCc3c(-c4c(Cl)cccc4Cl)noc3C3CC3)cc2)cc1Cl`: the values for the 50% effective concentration (EC50) in experiment [1] and in experiment [2] were 193 nM and 239 nM, respectively.

As to `O=C(O)C1=CC2NC(c3ccc(OCc4c(-c5c(Cl)cccc5Cl)noc4C4CC4)cc3)=NC2C=C1` (stereo unspecified), in experiment [3], the IC50 was found to be 4350 nM.

As to `O=C(NCC1CC1)c1cccc(-c2ccc(OCc3c(-c4c(Cl)cccc4Cl)noc3C3CC3)cc2)c1`, the EC50 in experiment [1] is above 10000 nM.

In the case of `CC(C)(C)NC(=O)c1cccc(-c2ccc(OCc3c(-c4c(Cl)cccc4Cl)noc3C3CC3)cc2)c1`, in experiment [1], the EC50 was above 10000 nM.

With `O=C(O)c1c(F)cc(-c2ccc(OCc3c(-c4c(Cl)cccc4Cl)noc3C3CC3)cc2)cc1F`, in experiment [1], the concentration giving a half-maximal response (EC50) is 531 nM.

For `O=C(O)c1ccc(-c2ccc(OCc3c(-c4c(Cl)cccc4Cl)noc3C3CC3)cc2)c(C(F)(F)F)c1`, the EC50 in experiment [1] turned out to be 119 nM; in experiment [2], 288 nM.

With `CNC(=O)c1ccc(-c2ccc(OCc3c(-c4c(Cl)cccc4Cl)noc3C3CC3)cc2)cc1`, the EC50 in experiment [1] was found to be 146 nM; in experiment [2] it was 288 nM.

As for `O=C(O)c1ccc(-c2ccc(OCc3c(-c4c(Cl)cccc4Cl)noc3C3CC3)cc2)s1`, the EC50 came out at 271 nM in experiment [1] and 491 nM in experiment [2].

As for `OCC1(c2cccc(-c3ccc(OCc4c(-c5c(Cl)cccc5Cl)noc4C4CC4)cc3)c2)CC1`, the EC50 in experiment [1] is above 10000 nM.

With `O=C(O)c1ccc(-c2ccc(OCc3c(-c4c(Cl)cccc4Cl)noc3C3CC3)cc2)c(F)c1`, the results for the 50% effective concentration (EC50) in experiment [1] and in experiment [2] were 114 nM and 282 nM, respectively.

Take `NC(=O)c1ccc(-c2ccc(OCc3c(-c4c(Cl)cccc4Cl)noc3C3CC3)cc2)cc1`: the EC50 in experiment [1] stood at 145 nM; in experiment [2] it was 372 nM.

On to `O=C(c1cccc(-c2ccc(OCc3c(-c4c(Cl)cccc4Cl)noc3C3CC3)cc2)c1)N1CCOCC1`, for which the EC50 in experiment [1] is above 10000 nM.

For the molecule `Cc1cc(OCc2c(-c3c(Cl)cccc3Cl)noc2C2CC2)cc(C)c1-c1ccc(C(=O)O)cc1`, the values for the EC50 in experiment [1] and in experiment [2] were 85 nM and 261 nM, respectively.

Consider `O=C(O)c1ccc(-c2ccc(OCc3c(-c4c(Cl)cccc4Cl)noc3C3CC3)cn2)cc1`, for which the EC50 in experiment [1] turned out to be 697 nM.

On to `O=C(NC1CC1)c1cccc(-c2ccc(OCc3c(-c4c(Cl)cccc4Cl)noc3C3CC3)cc2)c1`, for which the EC50 in experiment [1] stood at 579 nM.

For `OCCOc1ccc(-c2ccc(OCc3c(-c4c(Cl)cccc4Cl)noc3C3CC3)cc2)cc1`, the EC50 in experiment [1] was above 10000 nM.

`O=C(O)c1ccnc(N2CC(O)(c3ccc(OCc4c(-c5c(Cl)cccc5Cl)noc4C4CC4)cc3Cl)C2)c1` [CILOFEXOR] displayed an EC50 in experiment [4] of 58 nM.

Regarding `CC[C@H]1[C@@H](O)[C@@H]2[C@H](CC[C@]3(C)[C@@H]([C@H](C)CCC(=O)O)CC[C@@H]23)[C@@]2(C)CC[C@@H](O)C[C@@H]12` [OBETICHOLIC ACID], the Activity in experiment [5] was 3.5. In experiment [3], this molecule registered an IC50 above 10000 nM.

These data come from ChEMBL document CHEMBL6114960, “Discovery of First-in-Class FXR and HSD17B13 Dual Modulator for the Treatment of Metabolic Dysfunction-Associated Fatty Liver Disease” (J Med Chem, 2025).
